Values of other authors in patent US11026933B2, “Compositions and methods for treatment of cancer” (Children's Hospital Medical Center, priority 2016, dated 2021).

Key:
[1] = target: T1, FOXM1 (Homo sapiens, UniProt Q08050); conditions: Gormally et al., 2014
T1 sequence (Q08050 1-763): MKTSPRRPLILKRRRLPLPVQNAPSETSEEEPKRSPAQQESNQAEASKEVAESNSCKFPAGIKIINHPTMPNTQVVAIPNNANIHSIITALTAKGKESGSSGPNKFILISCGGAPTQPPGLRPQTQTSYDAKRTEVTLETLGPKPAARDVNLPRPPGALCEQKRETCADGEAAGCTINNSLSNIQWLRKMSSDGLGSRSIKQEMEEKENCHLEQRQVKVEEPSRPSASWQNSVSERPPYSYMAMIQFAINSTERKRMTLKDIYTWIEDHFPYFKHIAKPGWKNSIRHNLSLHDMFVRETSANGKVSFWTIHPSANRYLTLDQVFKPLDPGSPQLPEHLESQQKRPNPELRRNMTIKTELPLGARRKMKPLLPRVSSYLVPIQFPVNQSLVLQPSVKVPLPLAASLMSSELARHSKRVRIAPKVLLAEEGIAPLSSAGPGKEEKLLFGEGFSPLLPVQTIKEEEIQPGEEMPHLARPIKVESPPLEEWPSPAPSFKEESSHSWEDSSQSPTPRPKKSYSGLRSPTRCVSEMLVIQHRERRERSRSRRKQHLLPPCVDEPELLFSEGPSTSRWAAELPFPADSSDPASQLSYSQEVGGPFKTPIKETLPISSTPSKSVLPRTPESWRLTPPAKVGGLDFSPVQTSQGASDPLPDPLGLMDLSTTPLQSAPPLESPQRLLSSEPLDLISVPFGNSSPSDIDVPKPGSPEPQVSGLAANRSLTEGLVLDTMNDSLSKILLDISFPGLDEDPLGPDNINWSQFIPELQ

[2] = target: T1, FOXM1; conditions: Halasi and Gartel, 2013
[3] = test system: proteasome; conditions: Halasi and Gartel, 2013
[4] = target: T1, FOXM1; conditions: Halasi and Gartel, 2013; remark: listed apart in the source

Row | FOXM1 binding to DNA [1] | binding to FOXM1 protein [1] | Structure (SMILES) | inhibition of FOXM1 in cultured tumor cells [2] | proteasome inhibition [3] | inhibition of FOXM1 in mouse tumor models [4]
1 | blocked FOXM1 binding to DNA | directly bound to FOXM1 protein | Nc1c(C(=O)Nc2ccc(F)cc2)sc2nc(-c3cccs3)cc(C(F)(F)F)c12 [FDI-6] | – | – | –
2 | – | – | C=C(NC(=O)C(=C)NC(=O)c1csc(C2=N[C@@H]3c4csc(n4)[C@H]4NC(=O)c5csc(n5)[C@H]([C@](C)(O)[C@@H](C)O)NC(=O)[C@H]5CSC(=N5)/C(=C/C)NC(=O)[C@H]([C@@H](C)O)NC(=O)c5csc(n5)[C@]3(CC2)NC(=O)[C@H](C)NC(=O)C(=C)NC(=O)C(=C)NC(=O)[C@H](C(C)C)N[C@@H]2C=Cc3c([C@H](C)O)cc(nc3[C@H]2O)C(=O)O[C@@H]4C)n1)C(N)=O [Siomycin A] | inhibited FOXM1 | found to be proteasome inhibitors | inhibited FOXM1
3 | – | – | C=C(NC(=O)C(=C)NC(=O)c1csc(C2=N[C@@H]3c4csc(n4)[C@H]4NC(=O)c5csc(n5)[C@H]([C@](C)(O)[C@@H](C)O)NC(=O)[C@H]5CSC(=N5)/C(=C/C)NC(=O)[C@H]([C@@H](C)O)NC(=O)c5csc(n5)[C@]3(CC2)NC(=O)[C@H](C)NC(=O)C(=C)NC(=O)[C@H](C)NC(=O)[C@H]([C@@H](C)CC)N[C@@H]2C=Cc3c([C@H](C)O)cc(nc3[C@H]2O)C(=O)O[C@@H]4C)n1)C(N)=O [thiostrepton] | inhibited FOXM1 | found to be proteasome inhibitors | inhibited FOXM1
